Experimental data: US5955426A, “Cyclic hexapeptide somatostatin analogues” (Diatide, Inc., priority 1997, dated 1999)
Square brackets hold non-standard residues; d marks the D form. Peptide text beside a SMILES is read from it. * marks the point of attachment. X11 = NCCCC[C@H](NC(=O)C*)C(=O)NCCCC[C@H](N)C(=O)NCC(=O)N[C@@H](CS)C(N)=O; X13 = CC(=O)NCSC[C@H](NC(=O)CNC(=O)[C@H](CSCNC(C)=O)NC(=O)C*)C(N)=O; X7 = NC(=O)[C@H](CS)NC(=O)CNC(=O)[C@@H](N)CCCCNC(=O)C*; X5 = O=C(CNC(=O)[C@H](CS)NC(=O)C*)N[C@@H](CS)C(=O)O; X6 = NC(=O)[C@H](CS)NC(=O)CNC(=O)[C@H](CS)NC(=O)C*; X12 = NC(=O)[C@H](CS)NC(=O)CNC(=O)CNC(=O)C*; NMeF = CN[C@@H](Cc1ccccc1)C(=O)O; hCys = N[C@@H](CCS)C(=O)O

Biological target: T1, somatostatin receptor (Rattus norvegicus, UniProt P30680)
T1 construct: endogenous in cells; host or cells: AR42J rat pancreatic tumor cell line (membrane preparation)
T1 sequence (P30680 whole entry): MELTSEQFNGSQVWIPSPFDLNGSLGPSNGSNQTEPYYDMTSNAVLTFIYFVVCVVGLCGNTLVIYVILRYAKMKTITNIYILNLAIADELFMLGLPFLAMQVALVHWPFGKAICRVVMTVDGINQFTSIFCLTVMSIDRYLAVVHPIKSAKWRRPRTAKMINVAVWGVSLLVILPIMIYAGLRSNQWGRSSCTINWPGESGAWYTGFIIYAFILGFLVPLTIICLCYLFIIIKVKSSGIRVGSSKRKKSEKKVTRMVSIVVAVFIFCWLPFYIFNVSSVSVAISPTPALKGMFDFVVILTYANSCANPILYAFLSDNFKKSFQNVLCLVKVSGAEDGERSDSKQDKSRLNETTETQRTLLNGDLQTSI
Assay: Inhibition of binding of (125I-Tyr11)somatostatin-14 to AR42J rat pancreatic tumor cell membranes
Conditions: 0.5 nM (125I-Tyr11)somatostatin-14, 25 min at 30° C., read-out: K1 (inhibition constant)
Procedure: Inhibition of Binding of (^125 I-Tyr^11)somatostatin-14 to AR42J Rat Pancreatic Tumor Cell Membranes
The rat pancreatic tumor cell line AR42J which expresses the somatostatin receptor was cultured in Dulbecco's minimal essential media (DMEM) supplemented with 10% fetal bovine serum (FBS) and 8 mM glutamine in a humidified 5% CO2 atmosphere at 37° C. in T-flasks. Harvested cells were homogenized in cold 50 mM Tris-HCl buffer (pH 7.4) and the homogenate then centrifuged at 39,000 g for 10 min at 4° C. Pellets were washed once with buffer and then resuspended in an ice-cold solution of 10 mM Tris-HCl (pH 7.4). Equal aliquots of this cell membrane preparation were incubated with (^125 I-Tyr^11)somatostatin-14 (at a final concentration of 0.5 nM and 750,000 cpm/mL, at a specific activity of 2000 Ci/mmol, Amersham, Arlington Heights, Ill.) and peptide at a final concentration of from 10^-11 M to 10^-6 M in a solution of 50 mM HEPES (pH 7.4) containing 1% bovine serum albumin (BSA), 5 mM MgCl2, Trasylol (200,000 International Units), bacitracin (0.02 mg/mL) and phenylmethylsulfonylfluoride (0.02 mg/mL) for 25 min at 30° C. Using a filtration manifold, this mixture was filtered through a polyethyleneimine-washed GC/F filter (Whatman, Maidstone, England), and the residue remaining on the filter washed thrice with 5 mL cold HEPES buffer. The filter and a sample of the filter washings were then counted in a gamma counter. To assess non-specific binding, the assay was performed in the presence of unlabeled somatostatin-14 at 200 nM. Data analysis including Hill plots of the data provided inhibition constants (see Bylund & Yamamura, "Methods of receptor binding", in Methods in Neurotransmitter Receptor Analysis, Yamamura et al., eds., Raven Press: New York, 1990).

Ki	SMILES
2.4 nM	CC(C)[C@@H]1NC(=O)[C@H](CCCCN)NC(=O)[C@@H](Cc2c[nH]c3ccccc23)NC(=O)[C@H](Cc2ccc(O)cc2)NC(=O)[C@H](Cc2ccccc2)N(C)C(=O)[C@H](CCSCC(=O)NCC(=O)NCC(=O)N[C@@H](CS)C(N)=O)NC1=O [cyclo.(N-CH3)FYWD KV.Hcy(CH2 CO.GGC.amide)] (cyclo([NMeF]Y[dW]KV[hCys](X12)))
1.5 nM	CC(C)[C@@H]1NC(=O)[C@H](CCCCN)NC(=O)[C@@H](Cc2c[nH]c3ccccc23)NC(=O)[C@H](Cc2ccc(O)cc2)NC(=O)[C@H](Cc2ccccc2)N(C)C(=O)[C@H](CCSCC(=O)N[C@@H](CS)C(=O)NCC(=O)N[C@@H](CS)C(N)=O)NC1=O [cyclo.(N-CH3)FYWD KV.Hcy(CH2 CO.CGC.amide)] (cyclo([NMeF]Y[dW]KV[hCys](X6)))
0.79 nM	CC(=O)NCSC[C@H](NC(=O)CNC(=O)[C@H](CSCNC(C)=O)NC(=O)CSCC[C@@H]1NC(=O)[C@H](C(C)C)NC(=O)[C@H](CCCCN)NC(=O)[C@@H](Cc2c[nH]c3ccccc23)NC(=O)[C@H](Cc2ccc(O)cc2)NC(=O)[C@H](Cc2ccccc2)N(C)C1=O)C(N)=O [cyclo.(N-CH3)FYWD KV.Hcy(CH2 CO.CAcm GCAcm.amide)] (cyclo(KV[hCys](X13)[NMeF]Y[dW]))
0.65 nM	CC(C)[C@@H]1NC(=O)[C@H](CCCCN)NC(=O)[C@@H](Cc2c[nH]c3ccccc23)NC(=O)[C@H](Cc2ccc(O)cc2)NC(=O)[C@H](Cc2ccccc2)N(C)C(=O)[C@H](CCSCC(=O)N[C@@H](CCCCN)C(=O)NCCCC[C@H](N)C(=O)NCC(=O)N[C@@H](CS)C(N)=O)NC1=O [cyclo.(N-CH3)FYWD KV.Hcy(CH2 CO.K(ε-K)GC.amide)] (cyclo([NMeF]Y[dW]KV[hCys](X11)))
1.8 nM	CC(C)[C@@H]1NC(=O)[C@H](CCCCN)NC(=O)[C@@H](Cc2c[nH]c3ccccc23)NC(=O)[C@H](Cc2ccc(O)cc2)NC(=O)[C@H](Cc2ccccc2)N(C)C(=O)[C@H](CCSCC(=O)N[C@@H](CS)C(=O)NCC(=O)N[C@@H](CS)C(=O)O)NC1=O [cyclo.(N-CH3)FYWD KV.Hcy(CH2 CO.CGC)] (cyclo(KV[hCys](X5)[NMeF]Y[dW]))
2 nM	CC(C)[C@@H]1NC(=O)[C@H](CCCCN)NC(=O)[C@@H](Cc2c[nH]c3ccccc23)NC(=O)[C@H](Cc2ccc(O)cc2)NC(=O)[C@H](Cc2ccccc2)N(C)C(=O)[C@H](CCSCC(=O)NCCCC[C@H](N)C(=O)NCC(=O)N[C@@H](CS)C(N)=O)NC1=O [cyclo.(N-CH3)FYWD KV.Hcy(CH2 CO.(ε-K)GC.amide)] (cyclo([NMeF]Y[dW]KV[hCys](X7)))
